These results are taken from US20110160280A1, “CANCER-RELATED GENES, CDCA5, EPHA7, STK31 AND WDHD1” (Oncotherapy Science, Inc., priority 2007, published 2011).

In data set [1] the test system is EPHA7. Description: RNA interference assay: EPHA7 expression by semiquantitative RT-PCR. The class given is cell-based, human. To be noted: NCI-H520 and SBC-5 cells; versus control siRNAs (LUC, SCR). How it is done: (§1) Total RNA was extracted from cultured cells using Trizol reagent (Life Technologies, Inc. Gaithersburg, Md.) according to the manufacturer's protocol. Extracted RNAs were treated with DNase I (Nippon Gene, Tokyo, Japan) and reversely-transcribed using oligo (dT) primer and SuperScript II. The primer sets for amplification were as follows:
(§2) Small interfering RNA (siRNA) duplexes (Dharmacon, Inc., Lafayette, Colo.) (600 pM) were transfected into lung-cancer cell lines LC319 and A549 for CDCA5; NCI-H520 and SBC-5 for EPHA7; LC319 for WDHD1, and esophageal cancer cell line TE9 for WDHD1 using 30 μl of Lipofectamine 2000 (Invitrogen, Carlsbad, Calif.) following the manufacturer's protocol. The transfected cells were cultured for 7 days, and the number of colonies was counted by Giemsa staining, and viability of cells was evaluated by 3-(4,5-dimethylthiazol-2-yl)-2,5-diphenyltetrazolium bromide (MTT) assay (cell counting kit-8 solution; Dojindo Laboratories, Kumanoto, Japan), at 7 days after transfection. To confirm suppression of gene expression, semiquantitative RT-PCR was carried out with synthesized primers described above.

For a further data set, the system named is NCI-H520 cells. Description: RNA interference assay (oligo based): colony formation and MTT assays. The class given is cell-based, human. To be noted: 7 days after transfection. The protocol:
as §2
A general note: Formazan colour is commonly taken as a measure of viable cells.

Another data set relates to SBC-5 cells. The description is as above. The data set is classed as cell-based, human. To be noted: 7 days after transfection. How it is done: as §2
The test system of a further data set is WDHD1. The data set is described as follows: RNA interference assay: WDHD1 knockdown by RT-PCR. To be noted: A549, LC319 and TE9 cells. The class given is cell-based, human. The protocol: as §1, §2
The test system of data set [2] is CDCA5. Description: RNA interference assay: CDCA5 expression by semiquantitative RT-PCR. The class given is cell-based, human. The following applies: A549 and LC319 cells; compared with control siRNA (si-LUC and si-CNT). How it is done: as §1, §2
A further data set deals with STK31. The data set is described as follows: RNA interference assay (vector based): STK31 knockdown by RT-PCR. The class given is cell-based, human. To be noted: LC319 cells; controls si-EGFP and si-LUC. The protocol: as §1
(§3) The present inventors had established previously a vector-based RNAi system, psiH1BX3.0, which was designed to synthesize small interfering RNAs (siRNA) in mammalian cells (Suzuki C, et al., Cancer Res. 2003 Nov. 1; 63(21): 7038-41). Ten micrograms of siRNA expression vector were transfected using 30 μL Lipofectamine 2000 (Invitrogen) into lung cancer cell lines, LC319 and NCI-H2170. The transfected cells were cultured for 7 days in the presence of appropriate concentrations of geneticin (G418), and the number of colonies was counted by Giemsa staining, and viability of cells was evaluated by 3-(4,5-dimethylthiazol-2-yl)-2,5-diphenyltetrazolium bromide (MTT) assay (cell counting kit-8 solution; Dojindo, Kumamoto, Japan), at 7 days after the G418 treatment. To confirm suppression of STK31 protein expression, Western blotting was carried out with affinity-purified polyclonal antibody to STK31 according to the standard protocol. The target sequences of the synthetic oligonucleotides for RNAi were as follows: […]

The next data set concerns LC319 cells. The data set is described as follows: RNA interference assay (vector based): colony formation and MTT assays. The class given is cell-based, human. To be noted: P<0.001; 7 days with G418. How it is done:
as §3

In data set [3] the target is T1, EPHA7 (Homo sapiens, UniProt Q15375).
T1 construct: in vitro kinase assay using active recombinant proteins of cytoplasmic EPHA7, MET, EGFR; purchased Carnabioscience, Kobe, Japan
Description: In vitro EPHA7 kinase assay: EPHA7 autophosphorylation. The class given is biochemical. The following applies: at the minimum concentration inhibiting EGFR or MET autophosphorylation (assay used 1 mM AG1478, 12.5 μM SU11274). The protocol:
Active recombinant EPHA7 (Carnabioscience, Kobe, Japan), EGFR (Millipore, Billerica, Mass.), MET (Millipore), EGFR inhibitor AG1478 (EMD), and MET inhibitor SU11274 were commercially purchased. We constructed plasmids expressing partial fragments of EGFR (#1: codons 692-891, #2: codons 889-1045, #3: codons 1046-1186) that contained GST-tagged epitopes at their N-terminals were prepared using pGEX vector (GE Healthcare Bio-sciences). The recombinant peptides were expressed in Escherichia coli, BL21 codon-plus strain (Stratagene, La Jolla, Calif.), and purified using TALON resin (BD Biosciences Clontech) according to the supplier's protocol. The purified proteins were extracted on an SDS-PAGE gel. […] ATP (GE Healthcare Bio-sciences). After incubation at 30 degrees C. for 30 minutes the reactions were terminated by addition of SDS sample buffer. After boiling, the protein samples were electrophoresed on 5% to 15% gradient gel (Bio-Rad), and then signals were visualized by Molecular imager FX (Bio-Rad). In EPHA7 kinase assay using MET as substrate, we adopted the same protocol as above mentioned EPHA7-EGFR kinase reaction, using 50 ng of MET and 12.5 μM of SU11274 (MET inhibitor; see above), instead of EGFR and AG1478. […] ATP, and detected phosphorylated proteins using anti-pan phospho-tyrosine antibody (Invitrogen).

In data set [4] the test system is CDCA5. The data set is described as follows: CDC2-dependent phosphorylation of CDCA5 in mitosis, western blotting. The class given is cell-based. How it is done:
To determine whether endogenous CDCA5 phosphorylation in mitosis was CDC2-dependent, we further treated the lung cancer cells at 5 hours after release from G1/S phase with nocodazole alone or both nocodazole and CDC2 inhibitor CGP74514A, and measured the status of CDCA5 phosphorylation by western blotting. Mitotic cells treated with nocodazole alone gradually expressed phosphorylated CDCA5 (shifted bands) (FIG. 19B).
Background: A western blot detects proteins with antibodies after separation by electrophoresis.

Data set [5] has as its system CDCA5. How it is done:
(§4) Cultured A549 and LC319 lung cancer cells as well as cervical squamous cell carcinoma Hela cells were synchronized in G1/S phase by 2 μg/ml aphidilcoline for 16 hours incubation. For mitosis synchronization, the cells were released at 0 hour from G1/S phase. Nocodazole was added at 5 hours to prevent mitotic exit. At the point, CDC2 inhibitors or PBS were added to the cell cultures. For the EGF stimulation assay, Hela cells were cultured in FBS free medium for 20 hours. Then, the cells were stimulated by […] EGF for 30 min with or without 10 μM MEK inhibitor U0126 (Promega)

For a further data set, the system named is ERK. The following applies: serum-starved Hela cells, EGF stimulation with 10 μM U0126. The protocol: as §4
The next data set deals with NSCLC. To be noted: cited from earlier work.

T1 sequence (Q15375 577-998 limits assumed): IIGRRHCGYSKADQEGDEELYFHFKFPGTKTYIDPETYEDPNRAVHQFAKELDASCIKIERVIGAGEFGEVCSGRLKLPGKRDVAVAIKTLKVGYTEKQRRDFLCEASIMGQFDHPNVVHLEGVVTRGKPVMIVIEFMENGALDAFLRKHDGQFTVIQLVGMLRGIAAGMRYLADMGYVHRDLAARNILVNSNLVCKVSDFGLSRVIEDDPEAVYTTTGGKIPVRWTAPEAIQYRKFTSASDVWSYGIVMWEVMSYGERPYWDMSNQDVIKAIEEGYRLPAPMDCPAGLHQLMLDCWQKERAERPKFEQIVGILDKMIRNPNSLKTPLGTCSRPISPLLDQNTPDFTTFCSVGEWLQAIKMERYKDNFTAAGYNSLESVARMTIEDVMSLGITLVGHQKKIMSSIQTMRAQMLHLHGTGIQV

Regarding 5′-AAAAGAGAUGUUGCAGUA-3′ [si-EPHA7-#1], the “EPHA7 mRNA levels / EPHA7 expression” value in the data set with EPHA7 [1] is recorded as “weak reduction of EPHA7 expression”. The “number of colonies and viable cells (MTT), NCI-H520 cells, siRNA against EPHA7” value with NCI-H520 cells was “slight decreases in colony numbers and cell viability”. The “number of colonies and viable cells (MTT), SBC-5 cells, siRNA against EPHA7” value in the data set on SBC-5 cells is “slight decreases in colony numbers and cell viability”.

Turning to “5′-GAUCAGACAUGUGCUAUUA UU-3′ (GAUCAGACAUGUGCUAUUAUU; listed as RNA, chemistry not given here) [si-WDHD1-#1]”, the “WDHD1 knockdown effect (RT-PCR)” value with WDHD1 is given as “knockdown effect was confirmed”. Take “5′-GCAGUUUGAUCUCCUGGUUU-3′ [si-CDCA5-#1]”: in the data set on CDCA5 [2], the “expression of CDCA5” value is on record as “significantly suppressed expression of CDCA5”.

Consider “5′-GCCAGAGACUUGGAAAUGU UU-3′ [si-CDCA5-#2]”, for which, in the data set on CDCA5 [2], the “expression of CDCA5” value is listed as “significantly suppressed expression of CDCA5”.

Regarding 5′-GGAGATAGCTCTGGTTGAT-3′ [si-STK31-#1], the “STK31 knockdown effect (RT-PCR)” value in the data set with STK31 is “knockdown effect was confirmed”. Besides, the “number of LC319 cells (MTT and colony-formation assays), siRNA against STK31” value in the data set with LC319 cells is on record as “drastic reduction in the number of cells”.

Take 5′-GGGCTATTCTGTGGATGTT-3′ [si-STK31-#2]: in the data set with STK31, the “STK31 knockdown effect (RT-PCR)” value is given as “knockdown effect was confirmed”. The “number of LC319 cells (MTT and colony-formation assays), siRNA against STK31” value in the data set with LC319 cells is listed as “drastic reduction in the number of cells”. Consider 5′-UAGCAAAGCUGACCAAGAA-3′ [si-EPHA7-#2], for which, in the data set on EPHA7 [1], the “EPHA7 mRNA levels / EPHA7 expression” value is given as “significantly decreased”. For the same compound, the “number of colonies and viable cells (MTT), NCI-H520 cells, siRNA against EPHA7” value with NCI-H520 cells was “significant decreases in the number of colonies formed and in the numbers of viable cells”. In the data set on SBC-5 cells, the “number of colonies and viable cells (MTT), SBC-5 cells, siRNA against EPHA7” value is “significant decreases in the number of colonies formed and in the numbers of viable cells”. Consider `COc1cc2ncnc(Nc3cccc(Cl)c3)c2cc1OC` [AG1478], for which, at EPHA7 [3], the EPHA7 autophosphorylation entry was “did not inhibit EPHA7 autophosphorylation”. With `CCn1cnc2c(Nc3cccc(Cl)c3)nc(N[C@@H]3CCCC[C@@H]3N)nc21` [CGP74514A], the “CDCA5 phosphorylation in mitosis (upper shifted bands)” value with CDCA5 [4] (added with nocodazole 5 hours after release from G1/S phase) is recorded as “showed no upper shifted bands indicating that CDCA5 phosphorylation in mitosis was significantly inhibited”. Moreover, the “stability of CDCA5 protein” value with CDCA5 [4] (cells treated with CDC2 inhibitor (FIG. 19C)) is recorded as “seems to be unstable”. `Cc1[nH]c(/C=C2\C(=O)Nc3ccc(S(=O)(=O)N(C)c4cccc(Cl)c4)cc32)c(C)c1C(=O)N1CCN(C)CC1` [SU11274]: on EPHA7 [3], the EPHA7 autophosphorylation result is reported as “did not inhibit EPHA7 autophosphorylation”. With `N#CC(=C(/N)Sc1ccccc1N)/C(C#N)=C(\N)Sc1ccccc1N` [U0126], the “signal of spot no. 2 of myc-tagged CDCA5, 2D-western-blotting” value with CDCA5 [5] (Hela cells, EGF, U0126 treatment) is on record as “reduced”. The “shifted spots with more acidic pI (spots no. 3 and 4) of myc-tagged CDCA5, 2D-western-blotting” value in the data set on CDCA5 [5] (Hela cells, EGF, pre-incubation with U0126) was “significantly reduced”. Further, the “upper shift of CDCA5 band (endogenous CDCA5 phosphorylation)” value in the data set on CDCA5 [5] (serum-starved Hela cells, EGF stimulation with 10 μM U0126) was “completely inhibited the upper shift of CDCA5 band”. The “levels of ERK phosphorylation” value in the data set with ERK is reported as “reduced the levels of ERK phosphorylation”. In the case of `O=C1Cc2c([nH]c3ccc([N+](=O)[O-])cc23)-c2ccccc2N1` [alsterpaullone], in the data set on CDCA5 [4], the “CDC2-inhibitory activity relative to CGP74514A” value was “lower compared with the other CDC2 inhibitor CGP74514A”. Besides, the “CDCA5 phosphorylation in mitosis” value in the data set on CDCA5 [4] (4 μM, with nocodazole 5 hours after release from G1/S phase) was “could strictly inhibit CDCA5 phosphorylation”.

For `C#Cc1cccc(Nc2ncnc3cc(OCCOC)c(OCCOC)cc23)c1` [erlotinib], the median survival in the data set on NSCLC (NSCLC patients, placebo 4.7 months (Shepherd et al. 2005)) is 6.7 months.

In the case of `COc1cc2ncnc(Nc3ccc(F)c(Cl)c3)c2cc1OCCCN1CCOCC1` [gefitinib], in the data set on NSCLC (NSCLC (Giaccone 2004; Baselga 2004)), the clinical outcome is “superior response rate and symptom control”.
